Experimental data from patent US20040259875A1, “Amine derivatives” (priority 2001, published 2004).

Tested on: not given
Test: not given
Conditions: not given
For `O=C(Nc1cccc(-c2ccc(Cl)c(F)c2)c1)Nc1c(Cl)cc(Cl)c2ccc(O)cc12` [Example 4-19], the melting point was 241 °C (dec.).
For `O=C(Nc1ccc2c(c1)CCC2)Nc1c(Cl)cc(Cl)c2ccc(O)cc12` [Example 4-32], the melting point was > 300 °C.
With `O=C(Nc1ccc2c(c1)C(=O)OC2)Nc1c(Cl)cc(Cl)c2ccc(O)cc12` [Example 4-35] the melting point was 290 to 291 °C (dec.).
With `O=C(Nc1ccc2c(c1)C(=O)c1ccccc1-2)Nc1c(Cl)cc(Cl)c2ccc(O)cc12` [Example 4-36] the melting point was 236 °C (dec.).
For `O=C(Nc1cccc2c1C(=O)c1ccccc1-2)Nc1c(Cl)cc(Cl)c2ccc(O)cc12` [Example 4-37], the melting point was > 250 °C.
In the case of `O=C(Nc1ccc(F)c(F)c1)Nc1c(Cl)cc(Cl)c2ccc(O)cc12` [Example 4-38], the melting point is reported as 244 °C (dec.).
For `Cc1cc(NC(=O)Nc2c(Cl)cc(Cl)c3ccc(O)cc23)ccc1Cl` [Example 4-39], the melting point was 240 °C (dec.).
In the case of `O=C(Nc1ccc2c(c1)CCCC2=O)Nc1c(Cl)cc(Cl)c2ccc(O)cc12` [Example 4-40], the melting point is reported as 230 °C (dec.).
In the case of `COc1ccc(NC(=O)Nc2c(Cl)cc(Cl)c3ccc(O)cc23)cc1F` [Example 4-41], the melting point is reported as 235 to 238 °C (dec.).
In the case of `Cc1ccc(NC(=O)Nc2c(Cl)cc(Cl)c3ccc(O)cc23)cc1F` [Example 4-42], the melting point is reported as 261 to 264 °C (dec.).
With `Cc1cc(NC(=O)Nc2c(Cl)cc(Cl)c3ccc(O)cc23)ccc1F` [Example 4-45] the melting point was 250 to 252 °C (dec.).
Work on `CC(C)(C)c1cc(NC(=O)Nc2c(Br)cc(Br)c3ccc(O)cc23)no1` [Example 5-1, N-(5-tert-Butyl-3-isoxazolyl)-N′-(2,4-dibromo-7-hydroxy-1-naphthyl)urea] yielded a melting point of 214.5 °C.
With `CC1COC(c2cccc(NC(=O)Nc3c(Cl)ccc4ccc(O)cc34)c2)=N1` (centres unmarked) [Example 5-2] the melting point was 162 °C (dec.).
With `CC(=O)Nc1ccc2cccc(NC(=O)Nc3ccc(Cl)c(C(F)(F)F)c3)c2c1` [Example 9-1, N-{8-[({[4-Chloro-3-(trifluoromethyl)phenyl]amino}carbonyl)amino]-2-naphthyl}acetamide] the melting point was 241 to 242 °C.
Compound `CS(=O)(=O)Nc1ccc2cccc(NC(=O)Nc3ccc(Cl)c(C(F)(F)F)c3)c2c1` [Example 10-1, N-{8-[({[4-Chloro-3-(trifluoromethyl)phenyl]amino}carbonyl)amino]-2-naphthyl}methanesulfonamide] has a melting point of 225 to 226 °C.
In the case of `O=C(Cc1cccc2ccc(O)cc12)Nc1ccc(Cl)c(C(F)(F)F)c1` [Example 11-1, N-[4-Chloro-3-(trifluoromethyl)phenyl]-2-(7-hydroxy-1-naphthyl)acetamide], the melting point is reported as 162 °C.

Biological target: T1, human VR1 (Homo sapiens, UniProt Q8NER1)
T1 construct: expressed in transfected cells
T1 sequence (Q8NER1 whole entry): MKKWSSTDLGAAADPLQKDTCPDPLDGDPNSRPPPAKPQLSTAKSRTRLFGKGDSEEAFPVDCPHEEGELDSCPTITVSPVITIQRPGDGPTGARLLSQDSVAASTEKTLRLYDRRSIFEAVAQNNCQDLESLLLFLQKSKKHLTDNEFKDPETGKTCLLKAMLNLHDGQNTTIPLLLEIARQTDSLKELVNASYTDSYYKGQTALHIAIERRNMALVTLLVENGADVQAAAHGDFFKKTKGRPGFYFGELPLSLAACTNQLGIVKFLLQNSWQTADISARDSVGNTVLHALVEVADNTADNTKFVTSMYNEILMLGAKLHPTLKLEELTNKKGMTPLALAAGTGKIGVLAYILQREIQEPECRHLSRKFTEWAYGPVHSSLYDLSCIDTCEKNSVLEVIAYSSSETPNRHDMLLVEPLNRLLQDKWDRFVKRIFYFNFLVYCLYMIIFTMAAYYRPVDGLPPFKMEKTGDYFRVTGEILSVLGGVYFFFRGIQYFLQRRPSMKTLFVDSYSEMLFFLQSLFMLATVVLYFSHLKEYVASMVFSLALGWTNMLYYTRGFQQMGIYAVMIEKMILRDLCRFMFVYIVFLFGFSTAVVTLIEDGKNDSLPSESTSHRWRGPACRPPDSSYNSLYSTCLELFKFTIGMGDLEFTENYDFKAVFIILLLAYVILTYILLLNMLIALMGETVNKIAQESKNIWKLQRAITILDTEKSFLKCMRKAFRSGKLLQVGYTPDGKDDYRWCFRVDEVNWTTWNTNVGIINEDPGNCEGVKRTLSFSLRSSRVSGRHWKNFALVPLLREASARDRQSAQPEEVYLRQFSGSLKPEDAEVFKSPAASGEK
Test: Capsaicin-induced Ca2+ influx in the human VR1-transfected CHO cell line (Assay 1)
Format: cell-based
Conditions: capsaicin-induced Ca2+ flux; compounds or the salt thereof (e.g., potassium salt); purity about 40 to 90%
Excerpt: [Measurement of Capsaicin-induced Ca^2+ Influx in the Human VR1-transfected CHO Cell Line] (Assay 1)
(1) Establishment of the human VR1-CHOluc9aeq cell line
Human vanilloid receptor (hVR1) cDNA was cloned from libraries of axotomized dorsal root ganglia (WO2000/29577). The cloned hVR1 cDNA was constructed with pcDNA3 vector and transfected into a CHOluc9aeq cell line. The cell line contains aequorin and CRE-luciferase reporter genes as read-out signals. The transfectants were cloned by limiting dilution in selection medium (DMEM/F12 medium (Gibco BRL) supplemented with 10% FCS, 1.4 mM Sodium pyruvate, 20 mM HEPES, 0.15% Sodium bicarbonate, 100 U/ml penicillin, 100 μ/ml streptomycin, 2 mM glutamine, non-essential amino acids and 2 mg/ml G418). Ca^2+ influx was examined in the capsaicin-stimulated clones. […] The human VR1-CHOluc9aeq cells were maintained in the selection medium and passaged every 3-4 days at 1-2.5×10^5 cells/flask ([…])
(2) Measurement of Ca^2+ influx using FDSS-3000
Human VR1-CHOluc9aeq cells were suspended in a culture medium which is the same as the selection medium except for G418 and seeded at a density of 1,000 cells per well into 384-well plates (black walled clear-base/Nalge Nunc International). Following the culture for 48 hrs the medium was changed to 2 μM Fluo-3 AM (Molecular Probes) and 0.02% Puronic F-127 in assay buffer (Hank's balanced salt solution (HBSS), 17 mM HEPES (pH7.4), 1 mM Probenecid, 0.1% BSA) and the cells were incubated for 60 min at 25° C. After washing twice with assay buffer the cells were incubated with a test compound or vehicle for 20 min at 25° C. Mobilization of cytoplasmic Ca^2+ was measured by FDSS-3000 (λex=488 nm, λem=540 nm/Hamamatsu Photonics) for 60 sec after the stimulation with 10 nM of capsaicin (Nacalai Tesque). Integral R of the fluorescence changes was calculated in the samples treated with a test compound and vehicle respectively. Inhibitory effect of the compound was calculated by a comparison of the integral R values.
For `O=C(Nc1cccc(-c2ccccc2)c1)Nc1c(Cl)ccc2ccc(O)cc12` [N-(1,1′-biphenyl-3-yl)-N′-(2-chloro-7-hydroxy-1-naphthyl)urea], the IC50 was ≤ 10 nM.
With `O=C(Nc1cccc(-c2ccccc2)c1)Nc1cccc2ccc(O)cc12` [N-(1,1′-biphenyl-3-yl)-N′-(7-hydroxy-1-naphthyl)urea] the IC50 was ≤ 10 nM.
For `O=C(Nc1ccc2ccccc2c1)Nc1c(Cl)cc(Cl)c2ccc(O)cc12` [N-(2,4-dichloro-7-hydroxy-1-naphthyl)-N′-(2-naphthyl)urea], the IC50 was ≤ 10 nM.
In the case of `O=C(Nc1cccc(C(F)(F)F)c1)Nc1c(Cl)cc(Cl)c2ccc(O)cc12` [N-(2,4-dichloro-7-hydroxy-1-naphthyl)-N′-[3-(trifluoromethyl)phenyl]urea], the IC50 is reported as ≤ 10 nM.
For `O=C(Nc1ccc(F)c(C(F)(F)F)c1)Nc1c(Cl)cc(Cl)c2ccc(O)cc12` [N-(2,4-dichloro-7-hydroxy-1-naphthyl)-N′-[4-fluoro-3-(trifluoromethyl)phenyl]urea], the IC50 was ≤ 10 nM.
With `O=C(Nc1ccc(Cl)c(C(F)(F)F)c1)Nc1c(Cl)ccc2ccc(O)cc12` [N-(2-chloro-7-hydroxy-1-naphthyl)-N′-[4-chloro-3-(trifluoromethyl)phenyl]urea] the IC50 was ≤ 10 nM.
For `Cc1cc(Cl)c(NC(=O)Nc2ccc(Cl)c(C(F)(F)F)c2)c2cc(O)ccc12` [N-(2-chloro-7-hydroxy-4-methyl-1-naphthyl)-N′-[4-chloro-3-(trifluoromethyl)phenyl]urea], the IC50 was ≤ 10 nM.
With `O=C(Nc1cccc(-c2ccccc2Cl)c1)Nc1c(Cl)cc(Cl)c2ccc(O)cc12` [N-(2′-chloro-1,1′-biphenyl-3-yl)-N′-(2,4-dichloro-7-hydroxy-1-naphthyl)urea] the IC50 was ≤ 10 nM.
With `O=C(Nc1cccc(Cl)c1)Nc1c(Br)cc(Br)c2ccc(O)cc12` [N-(3-chlorophenyl)-N′-(2,4-dibromo-7-hydroxy-1-naphthyl)urea] the IC50 was ≤ 10 nM.
With `O=C(NCc1ccc(Br)cc1)Nc1c(Cl)ccc2ccc(O)cc12` [N-(4-bromobenzyl)-N′-(2-chloro-7-hydroxy-1-naphthyl)urea] the IC50 was ≤ 10 nM.
For `O=C(Nc1ccc(Cl)c(C(F)(F)F)c1)Nc1c(Cl)cc(Br)c2ccc(O)cc12` [N-(4bromo-2-chloro-7-hydroxy-1-naphthyl)N′-[4-chloro-3-(trifluoromethyl)phenyl]urea], the IC50 was ≤ 10 nM.
With `O=C(Nc1cccc(Oc2ccccc2)c1)Nc1cccc2ccc(O)cc12` [N-(7-hydroxy-1-naphthyl)-N′-(3-phenoxyphenyl)urea] the IC50 was ≤ 10 nM.
With `O=C(Nc1ccc(Oc2ccccc2)cc1)Nc1cccc2ccc(O)cc12` [N-(7-hydroxy-1-naphthyl)-N′-(4-phenoxyphenyl)urea] the IC50 was ≤ 10 nM.
In the case of `O=C(Nc1ccc(C(F)(F)F)cc1)Nc1cccc2ccc(O)cc12` [N-(7-hydroxy-1-naphthyl)-N′-[4-(trifluoromethyl)phenyl]urea], the IC50 is reported as ≤ 10 nM.
For `O=C(Nc1ccc(Oc2ccc(Cl)cc2)cc1)Nc1cccc2ccc(O)cc12` [N-[4-(4-chlorophenoxy)phenyl]-N′-(7-hydroxy-1-naphthyl)urea], the IC50 was ≤ 10 nM.
With `O=C(Nc1ccc(Cl)c(C(F)(F)F)c1)Nc1c(Br)cc(Br)c2ccc(O)cc12` [N-[4-chloro-3-(trifluoromethyl)phenyl]-N′-(2,4-dibromo-7-hydroxy-1-naphthyl)urea] the IC50 was ≤ 10 nM.
With `O=C(Nc1ccc(Cl)c(C(F)(F)F)c1)Nc1c(Cl)cc(Cl)c2ccc(O)cc12` [N-[4-chloro-3-(trifluoromethyl)phenyl]-N′-(2,4-dichloro-7-hydroxy-1-naphthyl)urea] the IC50 was ≤ 10 nM.
In the case of `Cc1ccc(NC(=O)Nc2ccc(Cl)c(C(F)(F)F)c2)c2cc(O)ccc12` [N-[4-chloro-3-(trifluoromethyl)phenyl]-N′-(7-hydroxy-4-methyl-1-naphthyl)urea], the IC50 is reported as ≤ 10 nM.
With `CCOC(=O)c1cccc(NC(=O)Nc2c(Cl)cc(Cl)c3ccc(O)cc23)c1` [ethyl 3-({[(2,4-dichloro-7-hydroxy-1-naphthyl)amino]carbonyl}amino)benzoate] the IC50 was ≤ 10 nM.
